Results: patent publication US20220241168A1, “COMPOSITION FOR STIMULATING BETA-ENDORPHIN PRODUCTION COMPRISING SANSHOOL” (AMOREPACIFIC CORPORATION, priority 2021, published 2022)

Tests used:
[1] = test system: CB2 receptor; settings: intraperitoneal administration; cited from earlier work
[2] = test system: human-derived keratinocyte, HaCaT; test: IL-1b release from HaCaT under poly (I:C)-induced allergic contact dermatitis conditions (ELISA); format: cell-based; settings: 10 μM, poly (I:C) 15 ng/ml, 24 hours
Description: First, a human-derived keratinocyte, HaCaT, was dispensed in a 24-well plate together with a Dulbecco's modified eagle's medium (DMEM) containing 10% fetal bovine serum (FBS), and cultured at 37° C. under 5% CO2 culture conditions for 24 hours. Afterwards, while inducing allergic contact dermatitis conditions to the HaCat with 15 ng/ml of poly (I:C), each of Example 1 (hydroxy-α-sanshool) and Example 2 (hydroxy-γ-sanshool), which were each dissolved in dimethyl sulfoxide (DMSO), were treated at 10 μM and dissolved in the medium. After 24 hours, each medium was collected, and IL-1b ELISA kit (R&D systems) was used to measure an amount of cytokine IL-1b according to a manufacturer's method.

[3] = test system: normal human epidermal cells, keratinocyte; test: β-endorphin secretion from normal human epidermal keratinocytes (β-endorphin EIA kit); format: cell-based; settings: for amount of β-endorphin secreted from keratinocyte: 10 μM, six hours, compared to control group (FIG. 1, FIG. 2); for β-endorphin production effect: six hours (FIG. 3)
Description: First, normal human epidermal cells, keratinocyte (Gibco), were cultured from a 6-well plate to a confluence point at 37° C. under 5% CO2 culture conditions. In an embodiment of the present disclosure, a keratinocyte-SFM (Gibco) medium was treated with 10 μM of each of hydroxy-α-sanshool (CHEMFACES®; Example 1), hydroxy-γ-sanshool (Chengdu Biopurify Phytochemicals Ltd.; Example 2), hydroxy-β-sanshool (Chengdu Biopurify Phytochemicals Ltd.; Example 3), hydroxy-ε-sanshool (Chengdu Biopurify Phytochemicals Ltd.; Example 4), cannabidiol (CBD) (Sigma-Aldrich®; Comparative Example 1), honokiol (Sigma-Aldrich®; Comparative Example 2), magnolol (Sigma-Aldrich®; Comparative Example 3), and palmitoylethanolamide (PEA) (Sigma-Aldrich®; Comparative Example 4), which are known as CB2 agonists as Comparative Examples, and cultured at 37° C. for six hours under 5% CO2 culture conditions. Afterwards, each medium was collected, and a β-endorphin EIA kit (EK-022-14, Phoenix pharmaceuticals, Belmont, Calif.) was used to quantify an amount of β-endorphin secreted from keratinocyte in each medium. Student t-test was used for statistical significance between specimens, and when a value of p-value is less than or equal to 0.05, it was analyzed as statistically significant. (*p<0.05, **p<0.01, ***p<0.001)
First, normal human epidermal cells, keratinocyte (Gibco), were cultured from a 6-well plate to a confluence point at 37° C. under 5% CO2 culture conditions. […] Afterwards, each medium was collected, and a β-endorphin EIA kit (EK-022-14, Phoenix pharmaceuticals, Belmont, Calif.) was used to quantify an amount of β-endorphin secreted from keratinocyte in each medium. Student t-test was used for statistical significance between specimens, and when a value of p-value is less than or equal to 0.05, it was analyzed as statistically significant. (*p<0.05, **p<0.01, ***p<0.001)

[4] = sanshool-containing drug ingested; cited from earlier work

| Compound | IL-1b [2] | amount of β-endorphin secreted from keratinocyte [3] | further results |
| --- | --- | --- | --- |
| CN1CCCCC1Cn1cc(C(=O)c2cc([N+](=O)[O-])ccc2I)c2ccccc21 (centres unmarked) [AM1241] | – | – | endorphin secretion [1]: had an effect on inducing endorphin secretion |
| C/C=C/C=C/C=C\CC/C=C/C=C/C(=O)NCC(C)(C)O [Example 2, hydroxy-γ-sanshool] | 11.2 pg/mL | – | – |
| C=CCc1ccc(O)c(-c2ccc(O)c(CC=C)c2)c1 [honokiol, reference compound] | – | further decrease in an amount of β-endorphin secretion compared to a control group | – |
| C/C=C/C=C/C=C\CC/C=C/C(=O)NCC(C)(C)O [Example 1, hydroxy-α-sanshool] | 11.29 pg/mL | – | – |
| sanshool | – | – | β-endorphin production effect ([3]; 0.00006 wt %): β-endorphin production effect was not shown; β-endorphin production effect ([3]; 0.006 wt % as printed): production of β-endorphin was induced; presence in plasma [4]: remained in plasma |
| C=CCc1ccc(O)c(-c2cc(CC=C)ccc2O)c1 [magnolol, reference compound] | – | further decrease in an amount of β-endorphin secretion compared to a control group | – |
